Laboratory results published in ChEMBL document CHEMBL1201862, “PubChem BioAssay data set” (2004).
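1) Cells in 96-well plates. 2) Compound, 48 h, 5 concentrations. 3) Linear interpolation between surrounding doses. 4) Unreached endpoint = highest concentration. GI50 = concentration required for 50% inhibition of growth.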 Active and inactive are the calls of the source. Rule as the data show it: active = GI50 up to about 1.1 µM and inactive = higher.

Key:
Experiment in all cases: growth of human tumour cells (NCI), 48 h
DMS-114 = test system: DMS-114
BT-549 = test system: BT-549
HOP-18 = test system: HOP-18
M19-MEL = test system: M19-MEL
DLD-1 = test system: DLD-1
DMS-273 = test system: DMS-273
RXF 631 = test system: RXF 631
KM-20L2 = test system: KM-20L2
Hs-578T = test system: Hs-578T

Row | Structure (SMILES) | GI50 (DMS-114) | GI50 (BT-549) | GI50 (HOP-18) | GI50 (M19-MEL) | GI50 (DLD-1) | GI50 (DMS-273) | GI50 (RXF 631) | GI50 (KM-20L2) | GI50 (Hs-578T)
1 | O=C(NCCCCCCCCNC(=O)c1cccc2ccccc12)c1cccc2ccccc12 | 42.6 µM (inactive) | 39.6 µM (inactive) | 21 µM (inactive) | > 86.1 µM (inactive) | > 100 µM (inactive) | 52.8 µM (inactive) | 13.9 µM (inactive) | > 100 µM (inactive) | –
2 | O=C(O)NC(c1ccccc1)C(NC(=O)c1ccccc1)c1ccccc1 (stereo unspecified) | > 100 µM (inactive) | – | > 100 µM (inactive) | > 100 µM (inactive) | > 100 µM (inactive) | – | – | > 100 µM (inactive) | –
3 | COC(=O)CCC(NC(=S)N/N=C(\C)c1cccs1)C(=O)OC (stereo unspecified) | > 100 µM (inactive) | – | > 100 µM (inactive) | > 100 µM (inactive) | > 100 µM (inactive) | > 100 µM (inactive) | – | > 100 µM (inactive) | –
4 | Cn1c(=O)n(C2(C)C[Se]C2)c2ccccc21 | – | – | – | > 100 µM (inactive) | > 100 µM (inactive) | > 100 µM (inactive) | – | > 100 µM (inactive) | –
5 | CC1=C2C=CC(=O)C[C@@]2(C)CCC1 | > 100 µM (inactive) | – | – | > 100 µM (inactive) | > 100 µM (inactive) | > 100 µM (inactive) | > 100 µM (inactive) | – | –
6 | Cc1nc2c(s/c(=N\N)n2-c2ccccc2)c(=O)[nH]1 | > 100 µM (inactive) | – | – | > 100 µM (inactive) | > 100 µM (inactive) | > 100 µM (inactive) | – | > 100 µM (inactive) | –
7 | CCCN1CN(C(C(=O)N[C@@H]2C(=O)N3C(C(=O)O)=C(C)CSC23)c2ccccc2)CSC1=S (stereo partly specified) | – | – | > 100 µM (inactive) | > 100 µM (inactive) | > 100 µM (inactive) | > 100 µM (inactive) | – | > 100 µM (inactive) | –
8 | CC(=O)OCC1OC(NC(=O)N(CCCl)N=O)C(OC(C)=O)C(OC(C)=O)C1OC(C)=O (stereo unspecified) | > 100 µM (inactive) | – | > 100 µM (inactive) | > 100 µM (inactive) | > 100 µM (inactive) | > 100 µM (inactive) | – | > 100 µM (inactive) | –
9 | COc1ccc2[nH]c3c(C)c4cc[n+](COC(=O)c5ccccc5)cc4c(C)c3c2c1 | 0.279 µM (active) | – | 0.0198 µM (active) | 0.381 µM (active) | – | – | 0.165 µM (active) | 0.282 µM (active) | –
10 | O=C(O)COc1ccc(C(=O)/C(SS/C(C(=O)c2ccc(OCC(=O)O)c(Cl)c2Cl)=C2\C=C(c3ccccc3Cl)SS2)=C2/C=C(c3ccccc3Cl)SS2)c(Cl)c1Cl | 9.73 µM (inactive) | – | 24.1 µM (inactive) | 28.5 µM (inactive) | 25 µM (inactive) | 25.6 µM (inactive) | 25.5 µM (inactive) | 49.8 µM (inactive) | –
11 | CC1=NNC(=O)C2CCC(=O)N12 (stereo unspecified) | > 100 µM (inactive) | – | > 100 µM (inactive) | > 100 µM (inactive) | > 100 µM (inactive) | > 100 µM (inactive) | > 100 µM (inactive) | 49.2 µM (inactive) | –
12 | O=C1OC2C(O)COC2(O)C1(O)Cc1c[nH]c2ccccc12.O=C1OC2C(O)COC2(OCc2c[nH]c3ccccc23)C1O (stereo unspecified) | > 100 µM (inactive) | – | > 100 µM (inactive) | > 100 µM (inactive) | > 100 µM (inactive) | > 100 µM (inactive) | – | > 100 µM (inactive) | –
13 | O=C(NO)C(=O)Nc1ccc(Cl)cc1[N+](=O)[O-] | > 100 µM (inactive) | – | > 100 µM (inactive) | > 100 µM (inactive) | > 100 µM (inactive) | > 100 µM (inactive) | > 100 µM (inactive) | > 100 µM (inactive) | –
14 | CCCCC(C)/C=C/C(O)=C1\C(=O)O/C(=C\C(=O)O)C1=O (stereo unspecified) | > 100 µM (inactive) | – | > 100 µM (inactive) | – | – | > 100 µM (inactive) | > 100 µM (inactive) | > 100 µM (inactive) | –
15 | CCc1cccc(C)c1NC(=O)CC1C(=O)Nc2ccccc2S1(=O)=O (stereo unspecified) | 16.8 µM (inactive) | – | – | 15.5 µM (inactive) | 15.8 µM (inactive) | 7.01 µM (inactive) | 14.2 µM (inactive) | 18.5 µM (inactive) | –
16 | Cn1c(CO)ccc1-c1ccc(-c2ccc(CO)[se]2)[se]1 | – | 11.1 µM (inactive) | – | – | – | – | – | – | > 100 µM (inactive)
17 | CC(C)CC(C(N)=O)C(=O)NC(Cc1ccccc1)NC(=O)CNC(=O)C(C)NC(=O)C(N)Cc1ccc(O)cc1 (stereo unspecified) | – | > 100 µM (inactive) | – | – | – | – | – | – | > 100 µM (inactive)
18 | Cc1nc2ccccc2n1Cc1nnc2n1N=C(c1ccccc1)CS2 | – | 32.1 µM (inactive) | – | – | – | – | – | – | 38.5 µM (inactive)
19 | CC(C)(O)[C@H](CCO)O[Si](c1ccccc1)(c1ccccc1)C(C)(C)C | – | – | 3.1 µM (inactive) | 14.9 µM (inactive) | 8.93 µM (inactive) | 10.1 µM (inactive) | – | 11.2 µM (inactive) | –
20 | COc1ccc(Nc2nc(N)c(C(=O)c3cccs3)s2)cc1 | – | 23.3 µM (inactive) | – | – | – | – | – | – | 11.5 µM (inactive)
21 | C=C1C(=O)O[C@H]2C/C(C=O)=C\[C@H]3O[C@H]3/C(COC(=O)C(C)C)=C/CC12 (stereo partly specified) | – | 12.2 µM (inactive) | – | – | – | – | – | – | 2.89 µM (inactive)
22 | O=C1CCC(NC(=O)c2ccccc2)C(=O)N1 (stereo unspecified) | – | > 100 µM (inactive) | – | – | – | – | – | – | > 100 µM (inactive)
23 | CC(C)(C)Sc1nnc(SC(C)(C)C)c2c(SC(C)(C)C)nnc(O)c12 | 4.31 µM (inactive) | – | – | 4.37 µM (inactive) | 10.9 µM (inactive) | 7.8 µM (inactive) | 3.2 µM (inactive) | 10.4 µM (inactive) | –
24 | Nc1nc(N)c2ncn(CC(CO)CC(c3ccccc3)P(=O)(O)O)c2n1 (stereo unspecified) | > 100 µM (inactive) | – | > 100 µM (inactive) | > 100 µM (inactive) | > 100 µM (inactive) | > 100 µM (inactive) | – | > 100 µM (inactive) | –

Row | Structure (SMILES) | GI50 (DMS-114) | GI50 (BT-549) | GI50 (HOP-18) | GI50 (M19-MEL) | GI50 (DLD-1) | GI50 (DMS-273) | GI50 (RXF 631) | GI50 (KM-20L2) | GI50 (Hs-578T)
25 | CCOc1ccc(NC(=O)C(=O)CC(=O)c2c[n+]([O-])c3cc(C)c(C)cc3[n+]2[O-])cc1 | > 100 µM (inactive) | – | > 100 µM (inactive) | > 100 µM (inactive) | – | > 100 µM (inactive) | > 100 µM (inactive) | > 100 µM (inactive) | –
26 | Cc1ccc(CN2CCN(Cc3ccc(C)o3)C(C)C2)o1 (stereo unspecified) | – | > 100 µM (inactive) | – | – | – | – | – | – | > 100 µM (inactive)
27 | COc1ccc(C2C=C(c3ccc(C)cc3)N(c3ccc(OC)cc3[N+](=O)[O-])C3C(=O)OC(=O)C23)c(OC)c1 (stereo unspecified) | – | 53.3 µM (inactive) | – | – | – | – | – | – | 22.5 µM (inactive)
28 | C=C1C(=O)O[C@@H]2OC3(C)CCC4C(C)CCC1C42OO3 (stereo partly specified) | – | – | 16.5 µM (inactive) | 3.49 µM (inactive) | 1.93 µM (inactive) | 3.41 µM (inactive) | – | – | –
29 | COc1ccc(C2COc3c(ccc(O)c3C)C2)cc1OC (stereo unspecified) | 24.4 µM (inactive) | – | 24.2 µM (inactive) | 83 µM (inactive) | 42 µM (inactive) | 57.4 µM (inactive) | – | 91.6 µM (inactive) | –
30 | O=c1c2ccccc2nc(-c2ccccc2)n1NC(=S)Nc1ccccc1 | 14.3 µM (inactive) | – | > 100 µM (inactive) | 94.4 µM (inactive) | > 100 µM (inactive) | > 100 µM (inactive) | – | – | –
31 | OC1CCC[C@@H]1Sc1ccccc1 (stereo partly specified) | > 100 µM (inactive) | – | – | > 100 µM (inactive) | > 100 µM (inactive) | > 100 µM (inactive) | > 100 µM (inactive) | > 100 µM (inactive) | –
32 | COC1=C(N)C(=O)c2nc(C)ccc2C1=O | 1.78 µM (inactive) | – | 1.98 µM (inactive) | 0.308 µM (active) | 2.31 µM (inactive) | 1.83 µM (inactive) | – | 2.3 µM (inactive) | –
33 | CC1=CC2=C(C)C3(CC3)[C@@](C)(O)C(=O)C2=C1 | 0.139 µM (active) | – | 0.27 µM (active) | 0.254 µM (active) | 0.276 µM (active) | 0.189 µM (active) | – | 0.213 µM (active) | –
34 | CCOC(=O)C1C(=O)C=C(c2cc(C)ccc2O)CC1c1cccc(Cl)c1 (stereo unspecified) | – | 44.6 µM (inactive) | – | – | – | – | – | – | 21 µM (inactive)
35 | Cc1c(-c2ccccc2)[nH]c2cc(Cl)ccc2c1=O | – | > 100 µM (inactive) | – | – | – | – | – | – | 14.8 µM (inactive)
36 | COc1cc(/C=C(\C)c2ccc3c(c2)OCO3)cc(OC)c1OC | 25.1 µM (inactive) | – | 64 µM (inactive) | 31.4 µM (inactive) | 18.5 µM (inactive) | 26 µM (inactive) | 28.6 µM (inactive) | 32.4 µM (inactive) | –
37 | Cn1c2ccc(C3=NCCN3)cc2c2cc(C3=NCCN3)ccc21 | – | > 100 µM (inactive) | – | – | – | – | – | – | 10.7 µM (inactive)
38 | CN(C)CCNC(=O)c1cccc2ccc(-c3ccc(Br)cc3)nc12 | 2.61 µM (inactive) | – | 1.91 µM (inactive) | 2.24 µM (inactive) | 2.59 µM (inactive) | 1.16 µM (inactive) | – | 1.78 µM (inactive) | –
39 | COc1cc(/C=C(\C#N)c2nc3ccccc3o2)ccc1O | – | 16.1 µM (inactive) | – | – | – | – | – | – | 23.1 µM (inactive)
40 | Cc1cc2oc(-c3ccccc3)c(C)c(=O)c2c2c1OC(C)(C)S2 | 83.9 µM (inactive) | – | > 100 µM (inactive) | > 100 µM (inactive) | 99.1 µM (inactive) | 71.9 µM (inactive) | > 100 µM (inactive) | 55.5 µM (inactive) | –
41 | CC(=O)OCC1OC(n2cc(F)c(=O)[nH]c2=O)C(OC(C)=O)C1OC(C)=O (stereo unspecified) | 39.8 µM (inactive) | 68.5 µM (inactive) | 38 µM (inactive) | 4.07 µM (inactive) | 15.4 µM (inactive) | – | 15.5 µM (inactive) | 54.1 µM (inactive) | > 59.3 µM (inactive)
42 | CCc1nc2cc3cccnc3c(Cl)c2[nH]c1=O | – | 65.9 µM (inactive) | – | – | – | – | – | – | > 100 µM (inactive)
43 | CCOC(=O)C(C(=O)OCC)P(=S)(S)c1ccccc1 (stereo unspecified) | > 100 µM (inactive) | – | – | > 100 µM (inactive) | > 100 µM (inactive) | > 100 µM (inactive) | > 100 µM (inactive) | > 100 µM (inactive) | –
44 | COc1cc2c(cc1OCCCC(=O)Nc1cc(C(=O)Nc3cc(C(=O)Nc4cc(C(=O)NCCCN(C)C)n(C)n4)n(C)c3)n(C)c1)N=CC1CCCN1C2=O (stereo unspecified) | – | 22.1 µM (inactive) | – | – | – | – | – | – | 22.1 µM (inactive)
45 | CN1C(C)(C)CC(=O)C(Br)C1(C)C (stereo unspecified) | – | > 100 µM (inactive) | – | – | – | – | – | – | > 100 µM (inactive)
46 | Cc1cc(C)n(C(=O)C(C)Sc2nnc(SC(C)C(=O)n3nc(C)cc3C)s2)n1 (stereo unspecified) | – | > 100 µM (inactive) | – | – | – | – | – | – | > 100 µM (inactive)
47 | Oc1cc(Cl)cc2cccnc12 | – | 3.89 µM (inactive) | – | – | – | – | – | – | 4.05 µM (inactive)
